Assay results as given in patent US10869924B2, “PD-L1 antagonist combination treatments” (MERCK PATENT GMBH, priority 2015, dated 2020).

Assays:
B16F10 melanoma = experiment: Subcutaneous B16F10 melanoma model, avelumab, anti-4-1BB and anti-OX40 (Example 6); assay type: in vivo, mouse; details: anti-OX40 3 mg/kg, anti-4-1BB 1 mg/kg, avelumab 20 mg/kg, ip, 3 doses 3 to 4 days apart, C57BL/6 mice
Description: Two murine models were used to evaluate the therapeutic efficacy of combinatorial treatment of anti-OX40 antibody, anti-4-1 BB and Avelumab. Six (6)- to 8-week old female C57BL/6 mice or Balb/C mice were purchased from the Jackson Laboratories. All animals were housed in a pathogen free vivarium facility at Rinat and experiments were conducted according to the protocols in accordance with the Institutional Animal Care and Use Committee (IACUC) guidelines.
The B16F10 melanoma cell line was purchased from American Type Culture Collection (ATCC). The MC38 colon carcinoma cell line was kindly provided by Dr. Antoni Ribas at University of California, Los Angeles, Calif. Cells were cultured in Dulbecco's Modified Eagle's Medium (DMEM) supplemented with 10% fetal bovine serum (FBS), 2 mM L-glutamine at 37° C. in 5% carbon dioxide (CO2). Cells growing in an exponential growth phase were harvested and used for tumor inoculation.
Therapeutic mouse anti-OX40 antibodies with either the mIgG1 or the mIgG2a isotype (anti-OX40 mIgG1 and anti-OX40 mIgG2a, respectively) were derived from parental clone OX86 in house. Therapeutic mouse anti-mouse 4-1BB antibody (mouse immunoglobulin G1 [mIgG1]), derived from the parental clone MAB9371 (R&D Systems), was prepared in-house. Avelumab was provided by Merck Serono. Isotype control mIgG1 (clone: MOPC-21) and mIgG2a (C1.18.4) was purchased from BioXcell. Human IgG1 was prepared in-house. Anti-OX40 antibody, anti-4-1BB antibody, and avelumab were dosed at 3 mg/kg, 1 mg/kg and 20 mg/kg in the B16F10 model and 1 mg/kg, 1 mg/kg and 10 mg/kg in the MC38 model, respectively, in phosphate buffered saline (PBS) (Life Technologies), and dosed at 0.2 mL per mouse intraperitoneally (ip) for 3 doses 3 to 4 days apart.
C57BL/6 mice were inoculated subcutaneously at the right flank with 0.3×10^6 B16F10 cells in 0.1 mL of PBS. Balb/C mice were inoculated subcutaneously at the right flank with 0.5×10^6 MC38 cells in 0.1 mL of PBS. When tumors reached target size, mice were randomized into treatment groups. Treatment was started on the same day as randomization. Tumor size was measured twice weekly in 2 dimensions using a caliper, and the volume was calculated in cubic millimeters using the formula: V=0.5 L×W^2 where L is the longest diameter of the tumor and W is the diameter perpendicular to L. Body weight was recorded weekly.
Results are summarized in Table 9 (B16F10 melanoma) and Table 10 (MC38 colon carcinoma) below (mean tumor size±SEM). Statistical analyses were performed using GraphPad Prism 6.0. 2-way ANOVA was applied to compare the statistical differences among multiple groups relative to the isotype control or other treatment groups. P<0.05 was considered as significant difference. Tumor measurements are in mm^3.

MC38 tumors = experiment: Flow cytometry of tumor-infiltrating lymphocytes from MC38 tumors after treatment (Example 3); assay type: in vivo, mouse; details: TILs isolated from MC38 tumors after treatment
Source text: Antibodies used for cell surface or intracellular staining were purchased from BD Biosciences or eBioscience. They were rat anti-mouse CD4-PerCP-Cy5.5 (clone RM4-5, BD Biosciences), rat anti-mouse CD8a-APC-H7 (clone 53-6.7, BD Biosciences), rat anti-mouse CD25-PE-Cy7 (clone PC61, BD Biosciences), rat anti-mouse CD45-BV510 (clone 30-F11, BD Biosciences), rat anti-mouse CD90.2-FITC (clone 53-2.1, BD Biosciences), rat anti-mouse Eomes-PE (clone: Dan11mag, eBioscience), rat anti-mouse FoxP3-eFluor450 (clone FJK-16s, eBioscience), and rat anti-mouse NKp46-BV421 or -AF647 (clone 29A1.4, BD Biosciences). Live cells were separated from dead cells using LIVE/DEAD Fixable Blue Dead Cell Stain Kit (Invitrogen). […]
An aliquot of cells was pre-incubated with 10 μg/mL of mouse BD Fc Block (BD Biosciences) for 10 minutes before phenotyping mAbs were added to specifically stain immune cells. […] After removing unbound mAbs, cells were washed twice with FACS staining buffer, fixed in fixative buffer (PBS+2% FBS+1% paraformaldehyde), and stored at 4° C. in the dark until analyzed by flow cytometry. […] Flow cytometry data were acquired using LSR Fortessa (BD Biosciences) and analyzed using FlowJo (TreeStar Inc.).
Results were expressed as mean±SEM. […]
Tumor-infiltrating lymphocytes (TILs) were isolated from MC38 tumors after treatment and analyzed for markers associated with anti-tumor immune response. […]

Avelumab: fully human mAb of the IgG1 isotype that specifically targets and blocks PD-L1
Mean Tumor Size (B16F10 melanoma; Day 12 post-tumor inoculation (start of treatment)): 77 mm^3 | Mean Tumor Size (B16F10 melanoma; Day 15 post-tumor inoculation): 236 mm^3 | Mean Tumor Size (B16F10 melanoma; Day 18 post-tumor inoculation): 396 mm^3 | Mean Tumor Size (B16F10 melanoma; Day 22 post-tumor inoculation): 750 mm^3 | Mean Tumor Size (B16F10 melanoma; Day 25 post-tumor inoculation): 1291 mm^3 | Mean Tumor Size (B16F10 melanoma; Day 29 post-tumor inoculation): 2159 mm^3 | Mean Tumor Size (B16F10 melanoma; Day 32 post-tumor inoculation): 2352 mm^3 | Mean Tumor Size (B16F10 melanoma; Day 32 post-tumor inoculation, listed as avelumab): 2352±264 mm^3 | ratio of CD8+ T cells/regulatory T cell (Treg) (MC38 tumors; FIG. 2): 2.5 | T-cell frequency (of CD45+ cells) in tumors (MC38 tumors; average, FIG. 1): 36%
